# Source: US20240181007A1, “COMPOSITIONS AND METHODS FOR TREATING PULMONARY HYPERTENSION” (Acceleron Pharma Inc., priority 2021, published 2024)
# Test system: Obese ZSF1-SU rats
# Assay: HFpEF induced PH rat model, obese ZSF1 rats challenged with semaxanib (Example 13)
# Assay type: in vivo
# Conditions: 5 mpk s.c. twice weekly for 8 weeks from day 64 after semaxanib, relative to Obese ZSF1-SU/Veh
# Description: The effects of an ActRIIA-mFc fusion polypeptide (SEQ ID NO: 56) was examined in a rat model of left ventricular diastolic dysfunction (also referred to as HFpEF) group 2 (subgroup 2.2) pulmonary hypertension (PH). In this model, ZSF1-Lepr^faLepr^cp/Crl rats were challenged with semaxanib (SU5416) to induce HFpEF-PH.
# Twenty ZSF1 Lepr^faLepr^cp/Crl male […] (8 wks old) and ten lean rats were subcutaneously administered with a single dose of semaxanib (100 mg/kg) at day 0, and ten lean rats were included as normal control. Eight weeks after semaxanib (SU5416) treatment, twenty ZSF1 Lepr^faLepr^cp/Crl rats were randomized into two groups: i) ten rats were injected subcutaneously with vehicle control (phosphate buffered saline (PBS)), twice weekly for 8 weeks starting from day 64 after semaxanib treatment, “Obese ZSF1 Veh”; and ii) ten rats were injected subcutaneously with ActRIIA-mFc at a dose of 5 mpk twice weekly for 8 weeks starting from day 64 after semaxanib treatment, “Obese ZSF1 ActRIIA-mFc.” At the end of the study, echocardiography and pressure-volume catheter were performed to measure left and right ventricular remodeling and functional changes before animals were euthanized for heart and lung collection.
# Prior to euthanization, in vivo cardiac function was assessed by transthoracic echocardiography (Acuson P300, 18 MHz linear transducer: Siemens) in lightly anesthetized rats as described. Echocardiographic assessments were conducted at week 8 (before therapy with ActRIIA-mFc or vehicle) and week 15 (after therapy) in each rat. From left ventricle short axis view, M-mode echocardiogram was acquired to measure interventricular septal thickness at end diastole (IVSd), left ventricular posterior wall thickness at end diastole (LVPWd), left ventricular end diastolic diameter (LVEDD), and left ventricular end systolic diameter (LVESD). Left ventricular mass (LVM) was assessed by the equation: 1.05 [(LVEDD+LVPTD+IVSd)^3-LVEDD^3]. Early diastolic filling peak velocity (E), early diastolic mitral annular velocity (E′), and isovolumetric relaxation time (IVRT) were measured from the medial or septal wall at the mitral valve level from tissue Doppler image. LV diastolic function was assessed by measuring the E/E′ ratio and IVRT. Pulmonary arterial acceleration time (PAAT), a parameter of right ventricular function, was measured. Tricuspid annular plane systolic excursion (TAPSE), a parameter of global right ventricular function, was also measured. RV free wall thickness (RVFWT) was measured using M-mode in a modified parasternal long-axis view through the aortic valve. Pulmonary artery acceleration time (PAAT) was measured as the time from start to peak velocity of blood flow in the lumen of the main pulmonary artery distal to the pulmonary valve as obtained from the pulse-wave doppler recording.
# Sixteen weeks after semaxanib treatment, rats were anesthetized with ketamine (100 mg/kg) and xylazine (5 mg/kg) at the end of the experiment to evaluate cardiac and pulmonary hemodynamics. The respiration was supported by a small animal ventilator. Thoracotomy was made through 4-5 intercostal space, and the heart was exposed. […] Ventricular pressure and volume were calculated with LabChart 7 software. […] After finishing left ventricular measurements, the catheter was advanced to the aorta, arterial blood systolic and diastolic pressure was detected. […] Similarly, right atrial pressure was measured by moving the catheter from the right ventricle into atrium. […]
substance,measurement,setting,value
ActRIIA-mFc: ActRIIA-mFc fusion polypeptide (SEQ ID NO: 56); extracellular domain fused to murine IgG2a Fc domain with a linker,PAAT,FIG. 56,significantly increased PAAT
same,right ventricular systolic pressure (RVSP),FIG. 57,significantly reduced right ventricular systolic pressure
same,RVWT,FIG. 58,significantly reduced elevated RVWT
same,TAPSE,FIG. 59,increased TAPSE
same,Fulton index (RV/(LV+S)),FIG. 60,decreased Fulton index
